What was measured:
[1] = tested on: two-cell stage ZF eggs; experiment: Zebrafish embryo microinjection into cytoplasm of two-cell stage eggs; type: in vivo, Danio rerio
Description: Microinjections were performed with the help of a SMZ-10A stereo microscope (Nicon, Melville, N.Y.) and transjector 5246 (Eppendorf Scientific Inc, Westbury, N.Y. 11590) at RT. The eggs in chorions were restrained in agar grooves filled with EM, and the drug containing solution was introduced into the cytoplasm of one of the blastomeres of the two-cell stage eggs through a micropipette with a splinted sharp tip of 2-3 μm in diameter. All microinjections were performed under visual control. Drugs for injection were dissolved in Hank's Balanced Salt Saline (Gibco, Rockville, Md.) with 10% DMSO. The volume of the solution injected into each blastomere was approximately […]. For every drug, 40-50 embryos were injected in 30 minutes of one series of experiment. After the treatment the embryos were transferred back to ST and studied as above.
(§1) Observations of cell division and development of the ZF embryos were carried out using a SMZ-10A stereo microscope (Nicon, Melville, N.Y.), once every 30 minutes within the first 3 hours of incubation and at 6, 12 and 24 hours, as well. […] The absorbance of each well was measured in a microplate reader (Labsystems) at 540 nm and a reference wavelength of 690 nm. The percent survival and the IC50 values were calculated using Graphpad Prism software version 2.0 (Graphpad Software, Inc., San Diego, Calif.), as described previously. […]

[2] = tested on: Zebra fish embryos; experiment: Zebrafish embryo model system, incubation of dechorionated two-cell stage embryos with drug; type: in vivo, Danio rerio
Description: ZF eggs were removed from their chorions by mild digestion in 1% Trypsin-EDTA (Sigma, St.Louis, Mo.) for 10 minutes at 28.5° C. (Standard temperature—ST), washed three times in “egg water” and twice in “embryonic medium” (EM), according to recommendations (Westerfield, The Zebrafish Book, Supra). The dechorionated two-cell stage cleaving eggs were transferred to the 24-well plastic cell culture plates (Costar, Cambridge, Mass.) filled with EM. Dechorionated embryos (10-12 per well) were exposed to the drugs at a constant ST for 0.5-24 hours. The final volume of the media in each well was 500 μL. The compound was tested at concentrations ranging from 10 μM to 4 mM. First dissolved in DMSO, it was then diluted serially with the incubation medium. The final concentration of DMSO in the wells was 1.2%. […]
as §1

[3] = tested on: BT-20 breast cancer cells; experiment: Immunocytochemistry and confocal microscopic analysis of mitotic spindles; type: cell-based, human; details: BT-20 cells, α-tubulin and DNA staining, confocal laser scanning microscopy
Description: At the appropriate time points coverslips containing BT-20 cells were fixed in−20° C. methanol for 15 minutes followed by 15 minutes incubation in phosphate buffered saline +0.1% Triton X-100 (PBS-Tx). Coverslips were next incubated with a primary antibody recognizing α-tubulin (Sigma, St.Louis Mo.) for 40 minutes in a humidified chamber at 37° C. Coverslips were washed for 15 minutes in PBS-Tx followed by a 40 minutes incubation with a fluorescently labeled secondary antibody (Jackson Immunoresearch, West Grove, Pa.). The coverslips were again rinsed in PBS-Tx and incubated with 5 μM Toto-3 (Molecular Probes, Eugene Oreg.) for 20 minutes to label the DNA. Coverslips were immediately inverted onto slides in Vectashield (Vector Labs, Burlingame, […].) to prevent photobleaching, sealed with nail polish and stored at 4° C.
Slides were examined using a Bio-Rad MRC-1024 Laser Scanning Confocal Microscope mounted on a Nikon Eclipse E800 upright microscope with high numerical aperture objectives. Slides were examined to determine the percentage of cells in interphase vs. mitosis and representative images were taken. Digital data was processed using Lasersharp (Bio-Rad, Hercules, Calif.) and Photoshop (Adobe Systems, Mountain View, Calif.) software and printed on a Pictrography printer (Fuji Photo Elmsford, N.Y.)

[4] = tested on: breast cancer cell line BT-20; experiment: MTT cytotoxicity assay; type: cell-based, human; details: BT-20, MTT, 48 hours; read-out: IC50 inhibition of proliferation
Description: (§2) Observations of cell division and development of the ZF embryos were carried out using a SMZ-10A stereo microscope (Nicon, Melville, N.Y.), once every 30 minutes within the first 3 hours of incubation and at 6, 12 and 24 hours, as well. […] The stereo microscope was fitted with a specially designed transparent heating tray in order to keep embryos at ST during observations. Pictures of the embryos were taken with a H-III Photomicrographic System (Nicon, Melville, N.Y.) using Ektachrome 64X film (Kodak, Rochester, N.Y.). Cytotoxicity MTF Assays The cytotoxicity of [VCp2(acac)](CF3SO3) against human cancer cell lines was performed as described previously (Ghosh et al, Clinc Canc Res, 6:1536, 2000) using the MTT (3-[4,5-dimethylthiazol-2-yl]-2,5-diphenyl tetrazolium bromide) assay (Boehringer Mannheim Corp., Indianapolis, Ind.). Briefly, exponentially growing tumor cells were seeded into a 96-well plate at a density of 2.5×10^4 cells/well and incubated [VCp2(acac)](CF3SO3) or 0.1% DMSO in PBS concentrations ranging from 0.1 to 250 μM. Following incubation with drug for 48 hours at 37° C., to each well, 10 μl of MTT (0.5 mg/ml final concentration) was added and the plates were incubated at 37° C. for 4 hours to allow MTT to form formazan crystals by reacting with metabolically active cells. The formazan crystals were solubilized overnight at 37° C. in a solution containing 10% SDS in 0.01 M HCl. The absorbance of each well was measured in a microplate reader (Labsystems) at 540 nm and a reference wavelength of 690 nm. The percent survival and the IC50 values were calculated using Graphpad Prism software version 2.0 (Graphpad Software, Inc., San Diego, Calif.), as described previously. Ghosh et al, Clinc Canc Res, 6:1536, 2000.

[5] = tested on: glioblastoma cell line U373; experiment: MTT cytotoxicity assay; type: cell-based, human; details: 48 hours, read-out: IC50 inhibition of proliferation
Description: as §2

[6] = tested on: breast cancer cell line MDA-MB-231; experiment: MTT cytotoxicity assay; type: cell-based, human; details: MDA-MB-231, MTT, 48 hours; read-out: IC50 inhibition of proliferation
Description: as §2

[7] = tested on: CAMs of growing chick embryos; experiment: Chick embryo chorioallantoic membrane (CAM) assay, inhibition of angiogenesis; type: in vivo, chick (white Leghorn chicken); details: for Avascular Zone: assessed 48 hours after implantation
Description: Inhibition of embryonic angiogenesis was determined using a bioassay system involving CAMs of growing chick embryos, as previously described (Nguyen et al, Microvascular Research, 47:31, 1994; Auerbach et al, Developmental Biology, 41:391, 1974). Fertilized white Leghorn chicken eggs were received at day 3 of incubation from the University of Minnesota Poultry Research Center, St. Paul, Minn. The following procedures took place in a sterile laminar flow hood. The eggs were wiped down with 70% isoprpyl alcohol and allowed to air dry. The eggs were wiped with Betadine and placed in a horizontal position for approximately 5 minutes and allowed to dry. The eggs were cracked and placed into sterile 100×20 mm^2 Petri dishes (Fischer, Itasca, Ill.) and transferred to a 37° C. humidified incubator (1.5% CO2). […] Louis, Mo.) were prepared by pipetting 10 μl of the compound, using a positive displacement pipette, onto sterile Teflon™ PFA Petri dishes (VWR, Chicago, Ill.) and drying in a vacuum desiccator at ambient temperature. […] The eggs were returned to a humidified 1.5% CO2/37° C. incubator.
Inhibition of angiogenesis was assessed 48 hours after implantation by measuring the avascular one in the CAM beneath the pellet, followed by photographic documentation of the CAM. Pellets containing 200 μg suramin (Calbiochem, La Jolla, Calif.) served as a positive control. The methylcellulose disk alone with no added compounds served as a negative control. Significant inhibition of angiogenesis was defined as the presence of an avascular zone of at least 3 mm in diameter around the methylcellulose disk.

`CC(=O)C=C(C)[O-].O=S(=O)([O-])C(F)(F)F.[V+4].c1cc[cH-]c1.c1cc[cH-]c1` [VDacac, Vanadocene acetylacetonato monotriflate] was tested, and the “anti-proliferative effect after microinjection” value ([1]; 1 pmol/embryo microinjected) was “formation of a blastocoel-like cavity in the blastoderm of late blastulae and early gastrulae and disrupted further gastrulation”, the “anti-proliferative effect after microinjection” value ([1]; 40 pmols/cell microinjected) was “slowed down cell division and resulted in deterioration of the cell localization pattern and developmental block” and the “effect on cell division / embryonic development” value ([2]; 0.6 mM in embryonic medium, 28.5° C.) was “cell division block at the 8-16 cell stage of embryonic development followed by total cell fusion and developmental arrest”. For the same compound, the “effect on cell division / embryonic development” value ([2]; concentrations lower than 0.6 mM, within 120 minutes of incubation) was “cell proliferation continued but was abnormal”, the mitotic spindle organization [3] was “aberrant monopolar mitotic structures” and the IC50 [4] was 25.1 µM. For the same compound, the IC50 [5] was 35.7 µM, the IC50 [6] was 9.6 µM and the “Avascular Zone” value ([7]; VDacac 1 (mg) pellet on CAM) was 7.0 ± 1.5 mm^2. The “Avascular Zone” value ([7]; VDacac 10 (mg) pellet on CAM) was 38.4 ± 16.6 mm^2, the “Avascular Zone” value ([7]; VDacac 100 (mg) pellet on CAM) was 92.4 ± 24.9 mm^2 and the “effect on angiogenesis in CAM” value ([7]; methylcellulose disks, doses ranging from 1 μg to 100 μg, 4-6 day old chick embryos) was “rapidly inhibited angiogenesis and produced within one hour a large avascular zone”.
